Experimental data: patent US10351575B2, “Bicyclic urea, thiourea, guanidine and cyanoguanidine compounds useful for the treatment of pain” (Array BioPharma Inc., priority 2012, dated 2019)

Legend:
Assay in all cases: KinaseProfiler off-target kinase profiling
Format in all cases: biochemical
Details in all cases: 10 μM, ATP near Km
[1] = molecular target: CAMK2d (Homo sapiens (Human), UniProt Q13557)
Description: (§1) Representative compounds (Examples 12, 32, 26 and 2) of the invention were tested for off-target kinase activity at a concentration of 10 μM by Millipore, Inc. in their KinaseProfiler™ service against all the kinases available in their full kinase panel. Compounds were run in duplicate at a concentration of ATP near the Km for each individual kinase according to Millipore's specifications. The results are shown in Table B. Data are reported as percent of control (POC) and are the average of the two replicates.

[2] = molecular target: CAMK4 (Homo sapiens (Human), UniProt Q16566)
Description: as §1

[3] = molecular target: CDK2/cyclinE (Homo sapiens (Human), UniProt P24941)
Description: as §1

[4] = molecular target: CLK2 (Homo sapiens (Human), UniProt P49760)
Description: as §1

[5] = molecular target: CLK3 (Homo sapiens (Human), UniProt P49761)
Description: as §1

[6] = molecular target: DAPK2 (Homo sapiens (Human), UniProt Q9UIK4)
Description: as §1

[7] = molecular target: ERK2 (Homo sapiens (Human), UniProt P28482)
Description: as §1

[8] = molecular target: EphA1 (Homo sapiens (Human), UniProt P21709)
Description: as §1

[9] = molecular target: FGFR3 (Homo sapiens (Human), UniProt P22607)
Description: as §1

[10] = molecular target: Flt4 (Homo sapiens (Human), UniProt P35916)
Description: as §1

[11] = molecular target: IR Activated (Homo sapiens (Human), UniProt P06213)
Description: as §1

[12] = molecular target: IRR (Homo sapiens (Human), UniProt P14616)
Description: as §1

[13] = molecular target: Lck (Homo sapiens (Human), UniProt P06239)
Description: as §1

[14] = molecular target: MAPKAP-K3 (Homo sapiens (Human), UniProt Q16644)
Description: as §1

[15] = molecular target: MARK2 (Homo sapiens (Human), UniProt Q7KZI7)
Description: as §1

[16] = molecular target: MINK (Homo sapiens (Human), UniProt Q8N4C8)
Description: as §1

[17] = molecular target: MKK6 (Homo sapiens (Human), UniProt P52564)
Description: as §1

[18] = molecular target: MRCKbeta (Homo sapiens (Human), UniProt Q9Y5S2)
Description: as §1

[19] = molecular target: NEK3 (Homo sapiens (Human), UniProt P51956)
Description: as §1

[20] = molecular target: PAK6 (Homo sapiens (Human), UniProt Q9NQU5)
Description: as §1

[21] = molecular target: PDK1 (Homo sapiens (Human), UniProt O15530)
Description: as §1

[22] = molecular target: PKCeta (Homo sapiens (Human), UniProt P24723)
Description: as §1

[23] = molecular target: PKCgamma (Homo sapiens (Human), UniProt P05129)
Description: as §1

[24] = molecular target: PKCiota (Homo sapiens (Human), UniProt P41743)
Description: as §1

[25] = molecular target: PKD1 (Homo sapiens (Human), UniProt Q15139)
Description: as §1

[26] = molecular target: Pim-2 (Homo sapiens (Human), UniProt Q9P1W9)
Description: as §1

[27] = molecular target: Plk1 (Homo sapiens (Human), UniProt P53350)
Description: as §1

[28] = molecular target: Rse (Homo sapiens (Human), UniProt Q06418)
Description: as §1

[29] = molecular target: Rsk3 (Homo sapiens (Human), UniProt Q15349)
Description: as §1

[30] = molecular target: SGK2 (Homo sapiens (Human), UniProt Q9HBY8)
Description: as §1

[31] = molecular target: Syk (Homo sapiens (Human), UniProt P43405)
Description: as §1

[32] = molecular target: TAO2 (Homo sapiens (Human), UniProt Q9UL54)
Description: as §1

[33] = molecular target: TSSK2 (Homo sapiens (Human), UniProt Q96PF2)
Description: as §1

[34] = molecular target: Tie2 (Homo sapiens (Human), UniProt Q02763)
Description: as §1

[35] = molecular target: TrkB (Homo sapiens (Human), UniProt Q16620)
Description: as §1

[36] = molecular target: Txk (Homo sapiens (Human), UniProt P42681)
Description: as §1

[37] = molecular target: Yes (Homo sapiens (Human), UniProt P07947)
Description: as §1

[38] = molecular target: ZAP-70 (Homo sapiens (Human), UniProt P43403)
Description: as §1

[39] = molecular target: mTOR (Homo sapiens (Human), UniProt P42345)
Description: as §1

CAMK4, sequence (Q16566 whole entry): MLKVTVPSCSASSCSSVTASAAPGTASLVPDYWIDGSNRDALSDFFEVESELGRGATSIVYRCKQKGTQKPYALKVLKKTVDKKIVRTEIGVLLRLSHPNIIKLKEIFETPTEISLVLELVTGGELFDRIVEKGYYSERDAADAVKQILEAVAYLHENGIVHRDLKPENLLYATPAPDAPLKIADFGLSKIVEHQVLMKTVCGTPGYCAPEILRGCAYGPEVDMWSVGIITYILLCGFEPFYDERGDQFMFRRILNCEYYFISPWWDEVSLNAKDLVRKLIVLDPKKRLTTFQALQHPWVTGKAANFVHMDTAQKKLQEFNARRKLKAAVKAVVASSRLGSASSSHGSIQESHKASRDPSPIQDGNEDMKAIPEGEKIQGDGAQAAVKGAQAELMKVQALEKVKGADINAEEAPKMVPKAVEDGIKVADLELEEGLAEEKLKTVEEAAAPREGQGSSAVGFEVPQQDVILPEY
PKCiota, sequence (P41743 whole entry): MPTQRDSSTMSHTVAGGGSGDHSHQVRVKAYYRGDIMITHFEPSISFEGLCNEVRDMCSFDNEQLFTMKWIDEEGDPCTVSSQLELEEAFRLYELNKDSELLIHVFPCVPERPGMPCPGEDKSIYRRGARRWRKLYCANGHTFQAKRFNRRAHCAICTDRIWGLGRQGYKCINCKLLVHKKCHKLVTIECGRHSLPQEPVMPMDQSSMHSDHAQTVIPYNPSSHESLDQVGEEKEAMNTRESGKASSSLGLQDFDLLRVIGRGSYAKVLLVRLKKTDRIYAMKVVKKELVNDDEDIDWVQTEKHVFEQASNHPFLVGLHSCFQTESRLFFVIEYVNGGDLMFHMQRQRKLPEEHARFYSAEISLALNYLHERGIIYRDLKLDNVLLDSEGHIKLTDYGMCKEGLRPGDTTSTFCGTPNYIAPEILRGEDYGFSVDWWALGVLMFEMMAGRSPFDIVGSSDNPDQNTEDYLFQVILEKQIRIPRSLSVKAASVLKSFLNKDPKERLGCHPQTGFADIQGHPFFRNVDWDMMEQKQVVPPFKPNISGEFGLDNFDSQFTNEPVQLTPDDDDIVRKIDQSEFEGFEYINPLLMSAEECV
Lck, sequence (P06239 whole entry): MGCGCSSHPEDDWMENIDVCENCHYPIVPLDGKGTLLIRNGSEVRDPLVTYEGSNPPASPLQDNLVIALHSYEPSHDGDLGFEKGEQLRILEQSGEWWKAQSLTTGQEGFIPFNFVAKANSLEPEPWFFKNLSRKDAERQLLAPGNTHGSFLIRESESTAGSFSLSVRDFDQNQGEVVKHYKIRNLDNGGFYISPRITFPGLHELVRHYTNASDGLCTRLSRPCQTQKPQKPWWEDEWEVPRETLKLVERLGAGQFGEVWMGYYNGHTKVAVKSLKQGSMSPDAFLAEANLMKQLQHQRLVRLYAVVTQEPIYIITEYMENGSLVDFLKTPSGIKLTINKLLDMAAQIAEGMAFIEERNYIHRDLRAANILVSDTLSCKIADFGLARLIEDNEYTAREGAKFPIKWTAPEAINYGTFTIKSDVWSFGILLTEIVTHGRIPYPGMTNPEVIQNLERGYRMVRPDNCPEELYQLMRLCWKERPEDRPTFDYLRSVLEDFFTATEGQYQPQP
ERK2, sequence (P28482 whole entry): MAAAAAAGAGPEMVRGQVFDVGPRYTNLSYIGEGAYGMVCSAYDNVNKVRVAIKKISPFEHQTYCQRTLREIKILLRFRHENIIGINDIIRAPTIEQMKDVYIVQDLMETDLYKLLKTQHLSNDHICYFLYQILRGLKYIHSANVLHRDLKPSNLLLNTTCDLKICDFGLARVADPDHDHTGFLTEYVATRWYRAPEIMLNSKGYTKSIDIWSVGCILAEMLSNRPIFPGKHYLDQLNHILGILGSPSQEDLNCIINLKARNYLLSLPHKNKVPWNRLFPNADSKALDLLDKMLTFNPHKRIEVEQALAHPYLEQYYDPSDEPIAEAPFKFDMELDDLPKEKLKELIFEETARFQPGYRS
Rse, sequence (Q06418 41-890): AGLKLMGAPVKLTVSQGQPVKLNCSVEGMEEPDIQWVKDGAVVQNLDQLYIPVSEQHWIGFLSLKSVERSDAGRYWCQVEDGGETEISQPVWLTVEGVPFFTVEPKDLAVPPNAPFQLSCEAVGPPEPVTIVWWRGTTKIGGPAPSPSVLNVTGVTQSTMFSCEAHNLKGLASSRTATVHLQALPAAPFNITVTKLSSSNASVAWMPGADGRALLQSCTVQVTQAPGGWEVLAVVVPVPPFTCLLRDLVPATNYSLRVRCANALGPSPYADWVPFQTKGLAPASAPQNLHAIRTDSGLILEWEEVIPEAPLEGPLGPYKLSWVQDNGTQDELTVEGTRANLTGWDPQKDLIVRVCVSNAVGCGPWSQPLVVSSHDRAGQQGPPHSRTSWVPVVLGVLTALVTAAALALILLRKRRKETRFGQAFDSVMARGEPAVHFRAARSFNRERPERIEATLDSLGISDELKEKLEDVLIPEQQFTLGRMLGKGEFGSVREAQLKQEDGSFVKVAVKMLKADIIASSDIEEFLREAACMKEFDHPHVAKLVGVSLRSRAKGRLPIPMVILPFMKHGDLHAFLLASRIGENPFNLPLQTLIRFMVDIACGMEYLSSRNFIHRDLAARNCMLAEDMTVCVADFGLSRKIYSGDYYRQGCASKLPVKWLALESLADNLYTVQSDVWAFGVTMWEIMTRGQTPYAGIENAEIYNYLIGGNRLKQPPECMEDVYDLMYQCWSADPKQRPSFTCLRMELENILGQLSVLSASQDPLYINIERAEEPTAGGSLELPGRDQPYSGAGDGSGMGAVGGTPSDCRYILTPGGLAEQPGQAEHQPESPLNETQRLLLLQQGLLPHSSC
ZAP-70, sequence (P43403 whole entry): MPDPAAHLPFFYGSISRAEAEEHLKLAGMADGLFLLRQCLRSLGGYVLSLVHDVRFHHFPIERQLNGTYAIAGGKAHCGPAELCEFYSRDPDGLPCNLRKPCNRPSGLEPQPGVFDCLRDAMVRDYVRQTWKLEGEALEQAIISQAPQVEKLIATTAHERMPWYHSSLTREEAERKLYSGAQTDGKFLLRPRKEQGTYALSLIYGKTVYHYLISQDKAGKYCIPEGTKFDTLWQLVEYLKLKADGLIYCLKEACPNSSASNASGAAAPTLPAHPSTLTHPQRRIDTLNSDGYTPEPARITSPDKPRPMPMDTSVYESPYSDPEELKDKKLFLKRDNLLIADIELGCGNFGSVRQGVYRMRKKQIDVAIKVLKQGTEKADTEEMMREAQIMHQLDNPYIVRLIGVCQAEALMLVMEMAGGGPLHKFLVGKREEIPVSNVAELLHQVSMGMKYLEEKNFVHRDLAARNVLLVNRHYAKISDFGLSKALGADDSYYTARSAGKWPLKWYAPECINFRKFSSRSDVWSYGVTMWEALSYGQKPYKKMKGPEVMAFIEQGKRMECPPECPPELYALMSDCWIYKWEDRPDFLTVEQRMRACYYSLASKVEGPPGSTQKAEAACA
TAO2, sequence (Q9UL54 whole entry): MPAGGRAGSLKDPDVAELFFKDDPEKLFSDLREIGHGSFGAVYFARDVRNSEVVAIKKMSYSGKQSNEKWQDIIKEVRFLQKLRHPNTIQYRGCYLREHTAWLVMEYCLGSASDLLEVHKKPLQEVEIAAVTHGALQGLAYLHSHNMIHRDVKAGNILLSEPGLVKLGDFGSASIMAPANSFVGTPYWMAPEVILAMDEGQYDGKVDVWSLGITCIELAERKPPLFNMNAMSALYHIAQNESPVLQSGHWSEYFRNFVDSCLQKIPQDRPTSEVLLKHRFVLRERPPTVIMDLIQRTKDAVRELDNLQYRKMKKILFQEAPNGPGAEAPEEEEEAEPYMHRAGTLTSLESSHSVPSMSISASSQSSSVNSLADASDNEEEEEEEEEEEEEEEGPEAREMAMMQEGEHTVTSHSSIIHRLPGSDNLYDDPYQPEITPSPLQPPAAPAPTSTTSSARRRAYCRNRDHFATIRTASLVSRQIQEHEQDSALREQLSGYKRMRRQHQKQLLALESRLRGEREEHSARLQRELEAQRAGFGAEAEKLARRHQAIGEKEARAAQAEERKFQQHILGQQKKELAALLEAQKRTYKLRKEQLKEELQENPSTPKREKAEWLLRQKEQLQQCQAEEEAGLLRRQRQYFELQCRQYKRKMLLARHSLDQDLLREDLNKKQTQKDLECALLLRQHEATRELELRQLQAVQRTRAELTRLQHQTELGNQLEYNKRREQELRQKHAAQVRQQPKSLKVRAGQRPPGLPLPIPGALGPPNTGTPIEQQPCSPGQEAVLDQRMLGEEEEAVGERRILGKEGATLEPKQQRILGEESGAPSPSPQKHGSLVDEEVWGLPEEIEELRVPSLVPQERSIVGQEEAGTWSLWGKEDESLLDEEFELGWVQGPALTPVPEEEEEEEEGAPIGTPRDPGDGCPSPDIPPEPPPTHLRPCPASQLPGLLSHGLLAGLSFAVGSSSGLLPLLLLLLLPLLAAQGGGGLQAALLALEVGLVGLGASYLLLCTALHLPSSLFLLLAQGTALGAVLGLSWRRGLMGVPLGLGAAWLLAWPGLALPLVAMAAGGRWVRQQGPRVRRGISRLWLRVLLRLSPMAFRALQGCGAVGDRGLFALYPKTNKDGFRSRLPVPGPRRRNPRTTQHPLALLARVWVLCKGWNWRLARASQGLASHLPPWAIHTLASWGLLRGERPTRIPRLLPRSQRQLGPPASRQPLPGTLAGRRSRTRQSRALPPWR
MKK6, sequence (P52564 whole entry): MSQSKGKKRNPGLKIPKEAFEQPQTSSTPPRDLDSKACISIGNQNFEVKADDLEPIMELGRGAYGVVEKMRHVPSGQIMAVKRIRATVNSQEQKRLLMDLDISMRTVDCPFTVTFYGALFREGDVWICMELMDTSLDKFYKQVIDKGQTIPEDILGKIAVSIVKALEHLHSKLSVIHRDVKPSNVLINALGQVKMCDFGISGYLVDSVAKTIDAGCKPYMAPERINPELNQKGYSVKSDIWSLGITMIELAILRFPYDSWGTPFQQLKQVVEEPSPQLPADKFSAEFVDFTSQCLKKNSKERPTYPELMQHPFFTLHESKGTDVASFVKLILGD

SMILES	Avg. POC [1]	Avg. POC [2]	Avg. POC [3]	Avg. POC [4]	Avg. POC [5]	Avg. POC [6]	Avg. POC [7]	Avg. POC [8]	Avg. POC [9]	Avg. POC [10]	Avg. POC [11]	Avg. POC [12]	Avg. POC [13]	Avg. POC [14]	Avg. POC [15]	Avg. POC [16]	Avg. POC [17]	Avg. POC [18]	Avg. POC [19]	Avg. POC [20]	further results
COCc1ccc2c(c1)C(NC(=O)Nc1c(C)c(-c3cnn(C)c3)nn1-c1ccccc1)COC2 (stereo not drawn) [Example 32, 1-(1′,4-dimethyl-1-phenyl-1H,1′H-[3,4′-bipyrazol]-5-yl)-3-(6-(methoxymethyl)isochroman-4-yl)urea]	108.5 POC	102 POC	106 POC	105.5 POC	109 POC	103 POC	128.5 POC	114 POC	107 POC	98 POC	111.5 POC	109.5 POC	104.5 POC	105 POC	107.5 POC	124 POC	134.5 POC	103 POC	113 POC	116.5 POC	Avg. POC [21]: 101.5 POC; Avg. POC [22]: 111.5 POC; Avg. POC [23]: 104 POC; Avg. POC [24]: 71 POC; Avg. POC [25]: 98.5 POC; Avg. POC [26]: 116.5 POC; Avg. POC [27]: 108 POC; Avg. POC [28]: 105 POC; Avg. POC [29]: 92 POC; Avg. POC [30]: 123.5 POC; Avg. POC [31]: 115 POC; Avg. POC [32]: 104 POC; Avg. POC [33]: 120.5 POC; Avg. POC [34]: 121 POC; Avg. POC [35]: −0.5 POC; Avg. POC [36]: 127 POC; Avg. POC [37]: 114.5 POC; Avg. POC [38]: 124 POC; Avg. POC [39]: 94.5 POC
Cc1c(-c2ccc(=O)n(C)c2)nn(-c2ccccc2)c1NC(=O)NC1CN(CC(F)(F)F)Cc2ccccc21 (stereo not drawn) [Example 26, 1-(4-methyl-3-(1-methyl-6-oxo-1,6-dihydropyridin-3-yl)-1-phenyl-1H-pyrazol-5-yl)-3-(2-(2,2,2-trifluoroethyl)-1,2,3,4-tetrahydroisoquinolin-4-yl)urea]	99.5 POC	121 POC	97.5 POC	108.5 POC	106 POC	108.5 POC	107.5 POC	101 POC	101 POC	106 POC	106 POC	89 POC	96.5 POC	108.5 POC	102.5 POC	126.5 POC	121.5 POC	110 POC	105 POC	116.5 POC	Avg. POC [21]: 115 POC; Avg. POC [22]: 98 POC; Avg. POC [23]: 99 POC; Avg. POC [24]: 85.5 POC; Avg. POC [25]: 113.5 POC; Avg. POC [26]: 120.5 POC; Avg. POC [27]: 108 POC; Avg. POC [28]: 109.5 POC; Avg. POC [29]: 76.5 POC; Avg. POC [30]: 123.5 POC; Avg. POC [31]: 93.5 POC; Avg. POC [32]: 111 POC; Avg. POC [33]: 128 POC; Avg. POC [34]: 106.5 POC; Avg. POC [35]: 1.5 POC; Avg. POC [36]: 119 POC; Avg. POC [37]: 117.5 POC; Avg. POC [38]: 120.5 POC; Avg. POC [39]: 102.5 POC
Cc1c(-c2cnn(C)c2)nn(-c2ccccc2)c1NC(=O)N[C@H]1CCCc2ccccc21 [Example 2, (S)-1-(1′,4-dimethyl-1-phenyl-1H,1′H-3,4′-bipyrazol-5-yl)-3-(1,2,3,4-tetrahydronaphthalen-1-yl)urea]	119 POC	137.5 POC	116.5 POC	115.5 POC	108 POC	123.5 POC	112.5 POC	85 POC	113.5 POC	99 POC	103 POC	2.5 POC	97.5 POC	128 POC	109 POC	110.5 POC	130 POC	129.5 POC	105 POC	119.5 POC	Avg. POC [21]: 120.5 POC; Avg. POC [22]: 107 POC; Avg. POC [23]: 102 POC; Avg. POC [24]: 95.5 POC; Avg. POC [25]: 110.5 POC; Avg. POC [26]: 148 POC; Avg. POC [27]: 95 POC; Avg. POC [28]: 109 POC; Avg. POC [29]: 106 POC; Avg. POC [30]: 166.5 POC; Avg. POC [31]: 115 POC; Avg. POC [32]: 110 POC; Avg. POC [33]: 118.5 POC; Avg. POC [34]: 126 POC; Avg. POC [35]: −2 POC; Avg. POC [36]: 125 POC; Avg. POC [37]: 132.5 POC; Avg. POC [38]: 124 POC; Avg. POC [39]: 116 POC
Cc1c(-c2cnn(C)c2)nn(-c2ccccc2)c1NC(=O)NC1CCOc2cc(F)ccc21 (stereo not drawn) [Example 12, 1-(1′,4-dimethyl-1-phenyl-1H,1′H-[3,4′-bipyrazol]-5-yl)-3-(7-fluorochroman-4-yl)urea]	110.5 POC	113.5 POC	96.5 POC	100 POC	100 POC	102.5 POC	106.5 POC	100 POC	109 POC	83.5 POC	109 POC	91 POC	92 POC	112 POC	105.5 POC	102 POC	123 POC	103.5 POC	102 POC	139 POC	Avg. POC [21]: 105.5 POC; Avg. POC [22]: 100 POC; Avg. POC [23]: 104.5 POC; Avg. POC [24]: 69.5 POC; Avg. POC [25]: 115 POC; Avg. POC [26]: 118.5 POC; Avg. POC [27]: 98.5 POC; Avg. POC [28]: 106 POC; Avg. POC [29]: 90 POC; Avg. POC [30]: 148 POC; Avg. POC [31]: 108.5 POC; Avg. POC [32]: 121 POC; Avg. POC [33]: 139 POC; Avg. POC [34]: 104.5 POC; Avg. POC [35]: 1 POC; Avg. POC [36]: 139 POC; Avg. POC [37]: 119.5 POC; Avg. POC [38]: 140 POC; Avg. POC [39]: 104.5 POC
